As usually defined, the pIC50 is −log10 of the IC50, conventionally taken in molar units. Read a high pIC50 as a small IC50.

The text below walks through data of patent US9884063B2, “Amido-substituted azole compounds” (Bayer Pharma Aktiengesellschaft, priority 2014, dated 2018).

Molecules are shown by their SMILES. pIC50: −log10 of the molar value.

This test relates to wildtype Wnt signaling cascade. The test is described as follows: HEK293 TOP Assay (Super TopFlash luciferase reporter, Wnt-3a stimulated). Format: cell-based. The note with it: Homo sapiens, HEK293, 16 h, HEK293 TOP reporter cell line, Wnt-3a at EC50, 16 hours incubation, compound dilution series 50 μM to 15 nM. As to the method:
In order to discover and characterize small molecules which inhibit the wildtype Wnt pathway, a cellular reporter assay was employed. The corresponding assay cell was generated by transfection of the mammalian cell line HEK293 (ATCC, #CRL-1573) with the Super TopFlash vector (Morin, Science 275, 1997, 1787-1790; Molenaar et al., Cell 86 (3), 1996, 391-399). The HEK293 cell line is cultivated at 37° C. and 5% CO2 in DMEM (Life Technologies, #41965-039), supplemented with 2 mM glutamine, 20 mM HEPES, 1.4 mM pyruvate, 0.15% Na-bicarbonate and 10% foetal bovine serum (GIBCO, #10270). Stable transfectants were generated by selection with 300 μg/ml Hygromycin.
In preparation of the assay, the two cell lines were plated 24 hrs before beginning the test at 10000 cells per well in a 384 micro titre plate (MTP) in 30 μl growth medium. […] The recombinant human Wnt-3a was thereby applied between 2500 and 5 ng/ml in two-fold dilution steps.
Selective inhibitory activity for small molecules on the wildtype Wnt pathway was determined after parallel incubation of both (TOP and FOP) HEK293 reporter cell lines with a compound dilution series from 50 μM to 15 nM in steps of 3.16-fold dilutions in CAFTY buffer (130 mM sodium chloride, 5 mM potassium chloride, 20 mM HEPES, 1 mM magnesium chloride, 5 mM sodium bicarbonate, pH 7.4) containing 2 mM Ca^2+ and 0.01% BSA.
The compounds were thereby serially prediluted in 100% DMSO and thereafter 50 fold into the CAFTY compound dilution buffer (described above).
(In general: A reporter such as luciferase makes a cellular process visible.)
Regarding `CNC(=O)c1nc[nH]c1C(=O)Nc1ccc(NC(=O)c2c(OC)cccc2OC)cc1` [Example 57, N^5-{4-[(2,6-dimethoxybenzoyl)amino]phenyl}-N^4-methyl-1H-imidazole-4,5-dicarboxamide], the negative logarithm of the IC50 (pIC50) is 4.48.

As to `CNC(=O)c1nc[nH]c1C(=O)Nc1ccc(NC(=O)c2c(Cl)cc(Cl)cc2Cl)cc1` [Example 59, N^4-methyl-N^5-{4-[(2,4,6-trichlorobenzoyl)amino]phenyl}-1H-imidazole-4,5-dicarboxamide], the negative logarithm of the IC50 (pIC50) was 5.18.

In turn, `COC(=O)c1nc[nH]c1C(=O)Nc1ccc(NC(=O)c2ccc(F)cc2)c(F)c1` [Example 75, methyl-5-({3-fluoro-4-[(4-fluorobenzoyl)amino]phenyl}carbamoyl)-1H-imidazole-4-carboxylate] showed a pIC50 of 4.89.

Regarding `Cc1cc(NC(=O)c2[nH]cnc2C(=O)NCCN(C)C)ccc1NC(=O)c1ccccc1Cl` [Example 88, N^5-{4-[(2-chlorobenzoyl)amino]-3-methylphenyl}-N^4-[2-(dimethylamino)ethyl]-1H-imidazole-4,5-dicarboxamide], the negative-log IC50 (pIC50) was 5.62.

For the compound `CNC(=O)c1nc[nH]c1C(=O)Nc1ccc(NC(=O)c2ccc(F)cc2)c(C)c1` [Example 91, N^5-{4-[(4-fluorobenzoyl)amino]-3-methylphenyl}-N^4-methyl-1H-imidazole-4,5-dicarboxamide], the pIC50 is 4.35.

For the compound `Cc1cc(NC(=O)c2[nH]cnc2C(=O)NCCN2CCCCC2)ccc1NC(=O)c1ccc(F)cc1` [Example 93, N^5-{4-[(4-fluorobenzoyl)amino]-3-methylphenyl}-N^4-[2-(piperidin-1-yl)ethyl]-1H-imidazole-4,5-dicarboxamide], the negative logarithm of the IC50 (pIC50) is 5.58.

The compound `CNC(=O)c1nc[nH]c1C(=O)Nc1ccc(NC(=O)c2ccc(F)cc2)c(OC)c1` [Example 103, N^5-{4-[(4-fluorobenzoyl)amino]-3-methoxyphenyl}-N^4-methyl-1H-imidazole-4,5-dicarboxamide] had a pIC50 of 4.42.

The compound `COc1cc(NC(=O)c2[nH]cnc2C(=O)NCCN(C)C)ccc1NC(=O)c1ccc(F)cc1` [Example 104, N^4-[2-(dimethylamino)ethyl]-N^5-{4-[(4-fluorobenzoyl)amino]-3-methoxyphenyl}-1H-imidazole-4,5-dicarboxamide] showed a pIC50 of 5.14.

The compound `COC(=O)c1nc[nH]c1C(=O)Nc1ccc(NC(=O)c2ccccc2Cl)nc1` [Example 111, methyl 5-({6-[(2-chlorobenzoyl)amino]pyridin-3-yl}carbamoyl)-1H-imidazole-4-carboxylate] showed a pIC50 of 6.11.

`CNC(=O)c1nc[nH]c1C(=O)Nc1ccc(NC(=O)c2ccc(F)cc2)nc1` [Example 115, N^5-{6-[(4-fluorobenzoyl)amino]pyridin-3-yl}-N^4-methyl-1H-imidazole-4,5-dicarboxamide] had a negative-log IC50 (pIC50) of 5.45.

Regarding `CN(C)CCNC(=O)c1nc[nH]c1C(=O)Nc1ccc(NC(=O)c2ccc(F)cc2)nc1` [Example 116, N^4-[2-(dimethylamino)ethyl]-N^5-{6-[(4-fluorobenzoyl)amino]pyridin-3-yl}-1H-imidazole-4,5-dicarboxamide], the negative logarithm of the IC50 (pIC50) is 4.36.

Consider `O=C(Nc1ccc(NC(=O)c2[nH]cnc2C(=O)NCCN2CCCCC2)cn1)c1ccc(F)cc1` [Example 117, N^5-{6-[(4-fluorobenzoyl)amino]pyridin-3-yl}-N^4-[2-(piperidin-1-yl)ethyl]-1H-imidazole-4,5-dicarboxamide], for which the negative-log IC50 (pIC50) is 4.40.

For `O=C(Nc1ccc(NC(=O)c2nc[nH]c2C(=O)NCCO)cc1)c1ccc(F)cc1` [Example 136, N^4-{4-[(4-fluorobenzoyl)amino]phenyl}-N^5-(2-hydroxyethyl)-1H-imidazole-4,5-dicarboxamide], the pIC50 is 5.62.

On to `COCCNC(=O)c1[nH]cnc1C(=O)Nc1ccc(NC(=O)c2ccc(F)cc2)cc1` [Example 140, N^4-{4-[(4-fluorobenzoyl)amino]phenyl}-N^5-(2-methoxyethyl)-1H-imidazole-4,5-dicarboxamide], for which the negative-log IC50 (pIC50) is 5.24.

Compound `O=C(Nc1ccc(NC(=O)c2nc[nH]c2C(=O)NCC(F)F)cc1)c1ccc(F)cc1` [Example 141, N^5-(2,2-difluoroethyl)-N^4-{4-[(4-fluorobenzoyl)amino]phenyl}-1H-imidazole-4,5-dicarboxamide] had a negative logarithm of the IC50 (pIC50) of 5.52.

`O=C(Nc1ccc(NC(=O)c2nc[nH]c2C(=O)N2CCC2)cc1)c1ccc(F)cc1` [Example 143, 5-(azetidin-1-ylcarbonyl)-N-{4-[(4-fluorobenzoyl)amino]phenyl}-1H-imidazole-4-carboxamide] gave a pIC50 of 4.53.

Compound `CN(C)C(=O)c1[nH]cnc1C(=O)Nc1ccc(NC(=O)c2ccc(F)cc2)cc1` [Example 144, N^4-{4-[(4-fluorobenzoyl)amino]phenyl}-N^5,N^5-dimethyl-1H-imidazole-4,5-dicarboxamide] showed a negative-log IC50 (pIC50) of 4.30.

In the case of `CC(C)CNC(=O)c1[nH]cnc1C(=O)Nc1ccc(NC(=O)c2ccc(F)cc2)cc1` [Example 146, N^4-{4-[(4-fluorobenzoyl)amino]phenyl}-N^5-isobutyl-1H-imidazole-4,5-dicarboxamide], the negative-log IC50 (pIC50) was 5.29.

Compound `O=C(Nc1ccc(NC(=O)c2nc[nH]c2C(=O)NC(CO)CO)cc1)c1ccc(F)cc1` [Example 150, N^5-(1,3-dihydroxypropan-2-yl)-N^4-{4-[(4-fluorobenzoyl)amino]phenyl}-1H-imidazole-4,5-dicarboxamide] gave a pIC50 of 4.30.

Turning to `O=C(Nc1ccc(NC(=O)c2nc[nH]c2C(=O)NCCN2CCOCC2)cc1)c1ccc(F)cc1` [Example 151, N^4-{4-[(4-fluorobenzoyl)amino]phenyl}-N^5-[2-(morpholin-4-yl)ethyl]-1H-imidazole-4,5-dicarboxamide], the negative logarithm of the IC50 (pIC50) is 6.02.

`CC(C)(CN1CCOCC1)NC(=O)c1[nH]cnc1C(=O)Nc1ccc(NC(=O)c2ccccc2Cl)cc1` [Example 154, N^4-{4-[(2-chlorobenzoyl)amino]phenyl}-N^5-[2-methyl-1-(morpholin-4-yl)propan-2-yl]-1H-imidazole-4,5-dicarboxamide] gave a negative-log IC50 (pIC50) of 5.90.

`CN1CCN(CCNC(=O)c2[nH]cnc2C(=O)Nc2ccc(NC(=O)c3ccc(F)cc3)cc2)CC1` [Example 161, N^4-{4-[(4-fluorobenzoyl)amino]phenyl}-N^5-[2-(4-methylpiperazin-1-yl)ethyl]-1H-imidazole-4,5-dicarboxamide]: the negative-log IC50 (pIC50) was 4.44.

For `O=C(Nc1ccc(NC(=O)c2nc[nH]c2C(=O)NC(CO)CO)cc1)c1ccc(F)cc1Cl` [Example 172, N^4-{4-[(2-chloro-4-fluorobenzoyl)amino]phenyl}-N^5-(1,3-dihydroxypropan-2-yl)-1H-imidazole-4,5-dicarboxamide], the pIC50 is 5.65.

Compound `O=C(Nc1ccc(NC(=O)c2nc[nH]c2C(=O)NCCF)cc1)c1ccc(F)cc1` [Example 174, N^4-{4-[(4-fluorobenzoyl)amino]phenyl}-N^5-(2-fluoroethyl)-1H-imidazole-4,5-dicarboxamide] showed a pIC50 of 5.98.

`O=C(Nc1ccc(NC(=O)c2nc[nH]c2C(=O)NCCN2CCC(O)CC2)cc1)c1ccc(F)cc1` [Example 178, N^4-{4-[(4-fluorobenzoyl)amino]phenyl}-N^5-[2-(4-hydroxypiperidin-1-yl)ethyl]-1H-imidazole-4,5-dicarboxamide] had a negative-log IC50 (pIC50) of 5.93.

Take `CN1CCN(CCCNC(=O)c2[nH]cnc2C(=O)Nc2ccc(NC(=O)c3ccc(F)cc3)cc2)CC1` [Example 181, N^4-{4-[(4-fluorobenzoyl)amino]phenyl}-N^5-[3-(4-methylpiperazin-1-yl)propyl]-1H-imidazole-4,5-dicarboxamide]: the pIC50 is 5.17.

With `CN1CCN(CCCNC(=O)c2[nH]cnc2C(=O)Nc2ccc(NC(=O)c3ccccc3Cl)cc2)CC1` [Example 192, N^4-{4-[(2-chlorobenzoyl)amino]phenyl}-N^5-[3-(4-methylpiperazin-1-yl)propyl]-1H-imidazole-4,5-dicarboxamide], the pIC50 is 6.34.

Regarding `CN1CCN(NC(=O)c2[nH]cnc2C(=O)Nc2ccc(NC(=O)c3ccc(F)cc3)cc2)CC1` [Example 193, N^4-{4-[(4-fluorobenzoyl)amino]phenyl}-N^5-(4-methylpiperazin-1-yl)-1H-imidazole-4,5-dicarboxamide], the pIC50 is 5.24.

`CC(CNC(=O)c1[nH]cnc1C(=O)Nc1ccc(NC(=O)c2ccc(F)cc2)cc1)N1CCN(C)CC1` (stereo not drawn) [Example 205, N^4-{4-[(4-fluorobenzoyl)amino]phenyl}-N^5-[2-(4-methylpiperazin-1-yl)propyl]-1H-imidazole-4,5-dicarboxamide]: the negative logarithm of the IC50 (pIC50) is 5.58.

The compound `CNC(=O)c1nc[nH]c1C(=O)Nc1ccc(NC(=O)c2ccc(F)cc2O)cc1` [Example 245, N^5-{4-[(4-fluoro-2-hydroxybenzoyl)amino]phenyl}-N^4-methyl-1H-imidazole-4,5-dicarboxamide] showed a negative-log IC50 (pIC50) of 4.30.
